In US20130310347A1, “MULTI-MODALITY MOLECULAR IMAGING HIGH-THROUGHPUT ASSAY FOR IDENTIFYING HEAT SHOCK PROTEIN 90 (HSP90) INHIBITORS” (The Board of Trustees of the Leland Stanford Junior …, priority 2012, published 2013):

Tests used:
normal MEFs = experiment: Alamar Blue cell proliferation; format: cell-based, mouse
Text: CP9 had no effect on proliferation of normal MEFs. Since CP9 led to decrease in phosphorylated Akt (FIGS. 5A and 10A-10C), it was expected to inhibit glucose metabolism through relief of inhibition of glycogen synthase kinase […] (Nair & Olanow (2008) J. Biol. Chem. M707238200; Dandekar et al., (2007) J. Nucl. Med. 48: 602-607).

Hsp90β/p23 interactions = target: T1, Hsp90β/p23 interactions (Homo sapiens, UniProt P08238); experiment: RL/FL bioluminescence imaging of 293T xenografts in living mice; format: in vivo; conditions: CP9 80 mg/kg i.p., p>0.05
T1 construct: expressed in transfected cells; also with FL-eGFP reporter (293Tβ-FG) and as xenografts in nude mice
Method: (§1) Maximum radiance (photons/sec/cm^2/sr) from RL signals was normalized to that of FL signals at each site and at each time point to account for the effect of CP9 on cell proliferation. The RL/FL ratios were normalized to that of time 0 h to monitor the individual change in Hsp90(α/β)/p23 interactions in each mouse over time. Results were expressed as mean±S.E.M for the control and treatment groups for Hsp90α/p23 (left panel) and Hsp90β/p23 interactions (right panel).
(§2) To monitor the inhibition of Hsp90(α/β)/p23 interactions by CP9 in living mice, a second reporter (FL-eGFP) was introduced into the 293T cells stably expressing Hsp90(α/β)/p23 split RL reporters (now referred as 293T(α/β)—FG cells). Although ^18F-FLT has also been used to monitor tumor cell proliferation in small animals by PET (Tseng et al., (2005) J. Nucl. Med. 46: 1851-1857), FL imaging was used because of the higher sensitivity and ease of performing sequentially with RL imaging for Hsp90(α/β)/p23 interactions. […] Baseline RL and FL signals in each implanted tumor were determined upon i.v. substrate injection.
(§3) Based on experience with the Hsp90 inhibitors 17-AAG and PU-H71, CP9 (80 mg/kg) (n=5) was tested in animal experiments by i.p. injection with four doses at […] post baseline imaging (FIG. 7A). An equal volume of DMSO was injected into the carrier control group (n=5, FIG. 7B). Mice treated with 75 mg/kg PU-H71 (n=2) served as positive controls. Mice were re-imaged for Hsp90(α/β)/p23 interactions and cell proliferation via RL (FIG. 5B, left panels) and FL (FIG. 5B, right panels) imaging at the time points indicated, respectively. To account for the effect of cell number on Hsp90(α/β)/p23 interactions, RL signals were normalized to FL signals for each tumor at each time point, prior to normalization to that of time 0 h.
(§4) Mice were gas anesthetized using isofluorane (2% in 100% oxygen, 1 L/min) during all injection and imaging procedures and kept at 37° C. Mice were imaged using a cooled CCD camera (IVIS 200, Caliper Life Sciences, Mountain View, Calif.). […] Baseline RL activities in the implanted tumors in living mice were determined by i.v. injection of 30 μg cltz (in 150 μl of 5% ethanol: 95% PBS) and image acquisition of 3 mins. After a 30 mins wait for RL signals to decay, FL activities were determined by i.v. injection of 163 μg of D-Luc in 100 μl PBS with image acquisition of 10 sequences for 15 sec each to obtain the peak max radiance. […] Maximum radiance of RL was divided by that of FL signals at each time point, prior to normalization to that of time 0 hr for each individual mouse, and expressed as average radiance±S.E.M for each treatment group.

Hsp90α/p23 interactions [1] = target: T2, Hsp90α/p23 interactions (Homo sapiens, UniProt P07900); experiment: as above; format: in vivo; conditions: CP9 80 mg/kg i.p.
T2 construct: expressed in transfected cells; also with FL-eGFP reporter (293Tα-FG) and as xenografts in nude mice
Method: as §1, §2, §3, §4

Hsp90α/p23 interactions [2] = target: T2, Hsp90α/p23 interactions; experiment: HTS dose response, 293T cells stably expressing Hsp90α/p23 split RL reporters; format: cell-based; conditions: inhibition of bioluminescence signals by 50% vs carrier control; 8 point dose response 0.156-20 μM; 24 h
Method: Novel Hsp90 inhibitors using a commercial 30,176 small molecule chemical compound library with unknown targets and molecular mechanisms (FIG. 9B) were also identified. 293T cells stably expressing Hsp90α/p23 or Hsp90β/p23 split RL reporters were treated with each compound at 8.3 μM.
Baseline complemented RL activities were determined 90 mins after addition of 20 μl of ENDUREN® (10 μM final concentration) (Promega, Madison, Wis.) using the Analyst GT (Molecular Device, Sunnyvale, Calif.), with an acquisition time of 0.2 sec per well. Cells were incubated with compounds for 24 h prior to re-determination of complemented RL activities, and normalized to the mean RL activities of untreated cells in columns 1-2. Another small molecule chemical library with 30,176 compounds (SPECS, Wakefield, R.I.) was also used in screening modulators of Hsp90(α/β)/p23 inhibitors (at 8.3 μM, one drug per well for initial screening). For dose response/confirmation assay the compounds were tested in duplicate in an 8 point (0.156-20 μM) dose response assay for RL activities for both Hps90(α/β)/p23 interactions. The effect of each compound on cell proliferation at 20 μM was determined using Cell Titer-Blue assay in duplicate wells. […]

T1 sequence (P08238 whole entry): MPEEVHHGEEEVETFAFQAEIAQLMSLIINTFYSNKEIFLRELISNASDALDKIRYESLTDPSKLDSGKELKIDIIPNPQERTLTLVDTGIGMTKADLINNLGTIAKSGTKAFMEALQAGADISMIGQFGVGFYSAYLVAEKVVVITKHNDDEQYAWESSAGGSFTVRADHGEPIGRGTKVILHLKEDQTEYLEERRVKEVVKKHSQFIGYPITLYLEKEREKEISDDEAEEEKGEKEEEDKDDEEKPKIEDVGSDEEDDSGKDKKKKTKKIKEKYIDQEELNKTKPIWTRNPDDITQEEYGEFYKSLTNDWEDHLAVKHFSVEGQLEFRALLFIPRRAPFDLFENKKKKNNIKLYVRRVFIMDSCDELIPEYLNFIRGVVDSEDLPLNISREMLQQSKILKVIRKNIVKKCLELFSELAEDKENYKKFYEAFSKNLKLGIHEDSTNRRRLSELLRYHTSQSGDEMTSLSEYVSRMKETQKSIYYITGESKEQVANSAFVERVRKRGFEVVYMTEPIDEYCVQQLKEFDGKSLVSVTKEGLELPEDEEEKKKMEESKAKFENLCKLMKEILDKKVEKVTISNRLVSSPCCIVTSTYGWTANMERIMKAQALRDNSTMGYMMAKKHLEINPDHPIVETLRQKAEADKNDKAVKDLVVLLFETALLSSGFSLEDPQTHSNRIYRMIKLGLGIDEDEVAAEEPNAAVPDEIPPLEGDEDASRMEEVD

`Cc1cc(NC(=O)CSc2nc(-c3cccs3)cc(C(F)(F)F)n2)no1` [CP9, N-(5-methylisoxazol-3-yl)-2-(4-(thiophen-2-yl)-6-(trifluoromethyl)pyrimidin-2-ylthio)acetamide] was tested, and the “proliferation of normal MEFs” value (normal MEFs) was “no effect”, the “RL/FL ratio in Hsp90β/p23 xenografts, normalized to time 0 h” value (Hsp90β/p23 interactions; 14 h) was 58±18% and the “RL/FL ratio in Hsp90β/p23 xenografts, normalized to time 0 h” value (Hsp90β/p23 interactions; 38 h) was 83±42%. The “RL/FL ratio in Hsp90α/p23 xenografts, normalized to time 0 h” value (Hsp90α/p23 interactions [1]; 14 h) was 122±39%, the “RL/FL ratio in Hsp90α/p23 xenografts, normalized to time 0 h” value (Hsp90α/p23 interactions [1]; 38 h, p<0.05 vs carrier control) was 79±19% and the IC50 (Hsp90α/p23 interactions [2]) was 3.2 µM.
